The values that follow come from US20080176889A1, “9-anilinoacridine alkylating agents” (priority 2004, published 2008).

Where a name gives a salt, the structure may show the parent alone. Read-outs that look alike come from different tables or passages of the source.

For series [1], the system named is human lymphoblastic leukemic cells (CCRF-CEM). As to the kind of experiment: XTT-tetrazolium cytotoxicity assay, CCRF-CEM. The format is cell-based. On the procedure: (§1) The effects of the compounds on cell growth were determined in all human tumor cells (i.e. T-cell acute lymphocytic leukemia CCRF-CEM), in a 72 h incubation, by XTT-tetrazolium assay, as described by Scudiero et al., Cancer Res. 1988, 48, 4827-4833. After the addition of phenazine methosulfate-XTT solution at 37° C. for 6 h, absorbance at 450 and 630 nm was detected on a microplate reader (EL 340; Bio-Tek Instruments Inc., Winooski, Vt.). Six to seven concentrations of each compound were used. The IC50 and dose-effect relationships of the compounds for antitumor activity were calculated by a median-effect plot (see, e.g., Chou et al. Adv. Enzyme Regul. 1984, 22, 27-55) using a computer program on an IBM-PC workstation (see, e.g., Chou et al. Dose-Effect Analysis with Microcomputers: Quantitation of ED50, LD50, Synergism, Antagonism, Low-Dose Risk, Receptor-Ligands Binding and Enzyme Kinetics; Biosoft: Cambridge, U.K., 1987).

For a further series, the system named is CCRF-CEM/VBL. As to the kind of experiment: XTT cytotoxicity assay, vinblastine-resistant subline. The series is classed as cell-based, human. To be noted: for IC50: Homo sapiens, CCRF-CEM, XTT, 72 hours incubation, read-out: IC50 CCRF-CEM/VBL; for folds of resistance CCRF-CEM/VBL vs CCRF-CEM parent cells: number in bracket, ratio of IC50's. How it is done:
as §1
(§2) Data summarizing the growth inhibition of human lymphoblastic leukemic cells (CCRF-CEM) and its drug-resistant sublines (resistant to vinblastine and taxol, CCRF-CEM/VBL and CCRF-CEM/taxol, respectively) by compound 37 is shown in Table 4.

The subject of a further series is CCRF-CEM/Taxol. In words: XTT cytotoxicity assay, taxol-resistant subline. The series is classed as cell-based, human. Particulars: for IC50: Homo sapiens, CCRF-CEM, XTT, 72 hours incubation, read-out: IC50 CCRF-CEM/Taxol; for folds of resistance CCRF-CEM/Taxol vs CCRF-CEM parent cells: number in bracket, ratio of IC50's. On the procedure:
as §1, §2

The next series has as its system A549. In words: SRB cytotoxicity assay, solid tumor cells A549. The format is cell-based, human. Particulars: for IC50: Homo sapiens, A549, SRB.
In the next series the test system is HCT-116. As to the kind of experiment: SRB cytotoxicity assay, solid tumor cells HCT-116. The format is cell-based. Particulars: Homo sapiens, HCT-116; SRB, 72 hours incubation; read-out: IC50 HCT-116.
The test system of another series is Topo II. In words: Topo II-mediated relaxation of pRYG-DNA. The series is classed as biochemical.
Setting [2] is: Table 2, Type 2 compounds, 72 h incubation, XTT.
The mark [3] stands for this setting: Table 1, Type 1 compounds, 72 h incubation, XTT.
[4] abbreviates: Homo sapiens, Table 4, XTT, 72 hours incubation, read-out: IC50 CCRF-CEM.
Setting [5] is: 72 hours incubation, read-out: IC50 A549.
The mark [6] stands for this setting: incubation for 3 hours, washed, then incubated for a total of 72 hours (footnote b), read-out: IC50 A549 after washing.

For the molecule `OCc1cc(O)cc(Nc2c3ccccc3nc3c(OCCN(CCCl)CCCl)cccc23)c1` [Compound 53, 3-(4-{2-[Bis-(2-chloroethyl)amino]ethoxy}acridin-9-ylamino)-5-hydroxymethylphenol], the IC50 in series [1] (setting [2]) came to 6.1 nM. In the case of `ClCCN(CCCl)Cc1cccc(Nc2c3ccccc3nc3ccccc23)c1` [Compound 46, Acridin-9-yl-(3-{[bis-(2-chloroethyl)amino]methyl}phenyl)amine], the IC50 in series [1] (setting [3]) amounted to 7.4 nM. For the molecule `ClCCN(CCCl)CCOc1ccc(Nc2c3ccccc3nc3c(OCCN(CCCl)CCCl)cccc23)cc1` [Compound 56, (4-[2-[Bis(2-chloroethyl)amino]ethoxy]acridin-9-yl)-(4-{2-[bis(2-chloroethyl)amino]-ethoxy}phenyl)amine], the IC50 in series [1] (Homo sapiens, 72 h) came to 17.3 nM.

In the case of `ClCCN(CCCl)CCCCOc1cccc(Nc2c3ccccc3nc3c(OCCN(CCCl)CCCl)cccc23)c1` [Compound 58], the IC50 in series [1] (Table 3, Type 3 compounds, 72 h incubation, XTT, read-out: IC50) was 25 nM. As for `Cc1cccc2c(Nc3ccc(OCCN(CCCl)CCCl)cc3)c3cccc(C(=O)NCCN(C)C)c3nc12` [Compound 44, 9-(4-{2-[Bis(2-chloroethyl)amino]ethoxy}phenylamino)-5-methylacridin-4-carboxylic acid (2-dimethylaminoethyl)amide], the IC50 in series [1] (setting [3]) stood at 773 nM. The same measure, in the same setting: under `ClCCN(CCCl)Cc1ccc(Nc2c3ccccc3nc3ccccc23)cc1` [Compound 47, Acridin-9-yl-(4-{[bis(2-chloroethyl)amino]methyl}phenyl)amine] stands 30 nM. Turning to `CC[C@]1(O)C[C@@H]2CN(CCc3c([nH]c4ccccc34)[C@@](C(=O)OC)(c3cc4c(cc3OC)N(C)[C@H]3[C@@](O)(C(=O)OC)[C@H](OC(C)=O)[C@]5(CC)C=CCN6CC[C@]43[C@@H]65)C2)C1` [Vinblastine], the IC50 in series [1] (setting [4]) was 1.2 nM; in the series with CCRF-CEM/VBL, 540 nM; in the series with CCRF-CEM/Taxol it was 29 nM; with A549 (setting [5]) it was 8.1 nM; in the series on A549 (setting [6]), 95 nM; in the series with HCT-116, 1.4 nM. For the same molecule, the “folds of resistance CCRF-CEM/VBL vs CCRF-CEM parent cells” value (from here on “folds of resistance CCRF-CEM/VBL”) with CCRF-CEM/VBL is 450 ×. Moreover, the “folds of resistance CCRF-CEM/Taxol vs CCRF-CEM parent cells” value (shortened to “folds of resistance CCRF-CEM/Taxol”) in the series with CCRF-CEM/Taxol amounted to 24.2 ×. Regarding `ClCCN(CCCl)CCOc1ccc(Nc2c3ccccc3nc3ccccc23)cc1` [Compound 40, Acridin-9-yl-(4-{2-[bis(2-chloroethyl)amino]ethoxy}phenyl)amine], the IC50 in series [1] (Homo sapiens, 72 h) stood at 20 nM. `CCOC(=O)Nc1cc(CO)cc(Nc2c3ccccc3nc3c(OCCN(CCCl)CCCl)cccc23)c1` [Compound 51]: the IC50 in series [1] (setting [2]) is 26 nM.

Turning to `ClCCN(CCCl)CCCCOc1cccc(Nc2c3ccccc3nc3ccccc23)c1` [Compound 39, Acridin-9-yl-(3-{4-[bis(2-chloroethyl)amino]butoxy}phenyl)amine], the IC50 in series [1] (Homo sapiens, 72 h) was determined as 456 nM. The same measure, in the same setting: under `ClCCN(CCCl)CCCCOc1ccc(Nc2c3ccccc3nc3ccccc23)cc1` [Compound 41, Acridin-9-yl-(4-{4-[bis(2-chloroethyl)amino]buoxy}phenyl)amine] stands 61 nM. For `Cc1cccc2c(Nc3cccc(OCCCCN(CCCl)CCCl)c3)c3cccc(C(=O)NCCN(C)C)c3nc12` [Compound 43, 9-(3-{4-[Bis(2-chloroethyl)amino]butoxy}phenylamino)-5-methylacridin-4-carboxylic acid (2-dimethylaminoethyl)amide], in series [1] (setting [3]), the IC50 was 23.5 nM. As to `COc1cc([C@@H]2c3cc4c(cc3[C@@H](O[C@@H]3O[C@@H]5CO[C@@H](C)O[C@H]5[C@H](O)[C@H]3O)[C@H]3COC(=O)[C@H]23)OCO4)cc(OC)c1O` [VP-16], the “Topo II-mediated relaxation of pRYG-DNA” value with Topo II was “inhibited DNA relaxation”. `ClCCN(CCCl)CCCCOc1cccc(Nc2c3ccccc3nc3c(OCCN(CCCl)CCCl)cccc23)c1` [Compound 55]: in series [1] (Homo sapiens, 72 h), the IC50 stood at 6 nM. In the case of AHMA-tert-butylcarbamate, the “Topo II-mediated relaxation of pRYG-DNA” value in the series on Topo II is listed as “inhibited DNA relaxation”. With `ClCCN(CCCl)CCOc1cccc(Nc2c3ccccc3nc3c(OCCN(CCCl)CCCl)cccc23)c1` [Compound 54, (4-{2-[Bis-(2-chloroethyl)amino]ethoxy}acridin-9-yl)-(3-{2-[bis(2-chloroethyl)-amino]ethoxy}phenyl)amine], the IC50 in series [1] (Homo sapiens, 72 h) stood at 18.6 nM. Consider `Nc1cc(CO)cc(Nc2c3ccccc3nc3c(OCCN(CCCl)CCCl)cccc23)c1` [Compound 50, [3-Amino-5-(4-{2-[bis(2-chloroethyl)amino]ethoxy}acridin-9-ylamino)phenyl]methanol], for which the IC50 in series [1] (setting [2]) is 7.2 nM.

With `ClCCN(CCCl)CCOc1cccc(Nc2c3ccccc3nc3ccccc23)c1` [Compound 38, Acridin-9-yl-(3-{2-[bis(2-chloroethyl)amino]ethoxy}phenyl)amine], in series [1] (Homo sapiens, 72 h), the IC50 stood at 95 nM. For the molecule `Cc1cccc2c(Nc3cccc(OCCN(CCCl)CCCl)c3)c3cccc(C(=O)NCCN(C)C)c3nc12` [Compound 42, 9-(3-{2-[Bis(2-chloroethyl)amino]ethoxy}phenylamino)-5-methylacridin-4-carboxylic acid (2-dimethylaminoethyl)amide], the IC50 in series [1] (setting [3]) is 3 nM. Consider `Nc1cc(CO)cc(Nc2c3ccccc3nc3ccccc23)c1` [AHMA, 3-(9-acridinylamino)-5-hydroxymethylaniline], for which the IC50 came to 753 nM in series [1] (Homo sapiens, Table 1, Type 1 compounds, 72 h incubation, XTT, read-out: IC50); 753 ± 378 nM in series [1] (setting [4]); 1600 nM in the series on CCRF-CEM/VBL; 600 ± 74 nM in the series on CCRF-CEM/Taxol; 47 nM in the series with A549 (setting [5]); 550 nM in the series on A549 (setting [6]). In addition, the “folds of resistance CCRF-CEM/VBL” value in the series with CCRF-CEM/VBL is on record as 2.1 ×. Moreover, the “folds of resistance CCRF-CEM/Taxol” value with CCRF-CEM/Taxol was 0.8 ×. Further, the “reduction of potency when drug washed away” value in the series with A549 (similar conditions, drug washed away) was “about 12 fold”. Consider `Cc1cccc2c(Nc3ccc(CN(CCCl)CCCl)cc3)c3cccc(C(=O)NCCN(C)C)c3nc12` [Compound 49, 9-(4-{[Bis(2-chloroethyl)amino]methyl}phenylamino)-5-methylacridin-4-carboxylic acid (2-dimethylaminoethyl)amide], for which the IC50 in series [1] (setting [3]) was 8.1 nM.

Consider `CC(=O)O[C@H]1C(=O)[C@@]2(C)[C@H]([C@H](OC(=O)c3ccccc3)[C@]3(O)C[C@H](OC(=O)[C@H](O)[C@@H](NC(=O)c4ccccc4)c4ccccc4)C(C)=C1C3(C)C)[C@]1(OC(C)=O)CO[C@@H]1C[C@@H]2O` [Taxol], for which the IC50 in series [1] (setting [4]) stood at 1.5 ± 0.5 nM; in the series with CCRF-CEM/VBL it was 1620 nM; with CCRF-CEM/Taxol, 143 ± 7 nM; in the series on A549 (setting [5]), 1.9 nM; with A549 (setting [6]) it was 390 nM; with HCT-116 it was 1.3 nM. For the same molecule, in the series on CCRF-CEM/VBL, the “folds of resistance CCRF-CEM/VBL” value is recorded as 1080 ×. Besides, the “folds of resistance CCRF-CEM/Taxol” value in the series with CCRF-CEM/Taxol amounted to 95.3 ×. Regarding `Nc1cc(CO)cc(Nc2c3ccccc3nc3c(OCCCCN(CCCl)CCCl)cccc23)c1` [Compound 52, [3-Amino-5-(4-{4-[bis-(2-chloroethyl)amino]butoxy}acridin-9-ylamino)phenyl]-methanol], the IC50 in series [1] (setting [2]) came to 4.6 nM. In turn, `Cc1cccc2c(Nc3ccc(OCCN(CCCl)CCCl)cc3)c3cccc(C(=O)NCCN(C)C)c3nc12` (as salt: salt) [Compound 44, 9-(4-{2-[Bis(2-chloroethyl)amino]ethoxy}phenylamino)-5-methylacridin-4-carboxylic acid (2-dimethylaminoethyl)amide] gave a melting point of 185 to 186 °C. For `Cc1cccc2c(Nc3cccc(CN(CCCl)CCCl)c3)c3cccc(C(=O)NCCN(C)C)c3nc12` [Compound 48, 9-(3-{[Bis(2-chloroethyl)amino]methyl}phenylamino)-5-methylacridine-4-carboxylic acid (2-dimethylaminoethyl)amide], the IC50 in series [1] (setting [3]) was determined as 1.7 nM. Still for that read-out and setting: under `Cc1cccc2c(Nc3ccc(OCCCCN(CCCl)CCCl)cc3)c3cccc(C(=O)NCCN(C)C)c3nc12` [Compound 45, 9-(4-{4-[Bis(2-chloroethyl)amino]butoxy}phenylamino)-5-methylacridin-4-carboxylic acid (2-dimethylaminoethyl)amide] stands 23 nM.
